Columns and labels:
Format in all cases: cell-based
AKT = AKT ubiquitination assay (TUBE pulldown, western blot); conditions: KU-19-19 cells, 3 uM of compound, 6 hrs
Description: For each assay condition. 5.0×10^6 KU-19-19 cells were seeded in 10 cm dish grown in RPMI (Invitrogen. Carlsbad. CA. USA) supplemented with 10% fetal bovine serum. Cells were incubated overnight at 37° C. in a humidified atmosphere containing 5% CO2. […]. Next day, media was removed and cells were rinsed with 0.1% FBS cell culture media. Then 10 mL of 0.1% FBS+RPMI containing 3 uM of compound was added to each plate and treated with compound for 6 hrs. Cells were washed 3× with PBS and placed on ice. 900 μL of lysis buffer (50 mM Tris-HCl pH 7.4, 150 mM NaCl. 1% NP-40, 1% Sodium deoxycholate. 2 mM EDTA, 10% Glycerol, 5 mM Iodoacetamide (dissolved in ddH2O, MCE, Cat #HY-34477), 1×HALT protease\phosphatase inhibitor (Pierce. Cat #78440), 1×PMSF (Sigma. Cat #93482-50ML-F), 5 mM 1.10 Phenanthroline (in DMSO, MCE, Cat #HY—W004544), 25 uM MG-132 (in DMSO) (MCE. Cat #HY-13259), 50 μM PR-619 (make it in DMSO) (MCE. Cat #HY-13814) and 1× Benzonase (Sigma. Cat #E8263) was added and incubated on ice for 3-5 min and then scraped and collected. Lysates were incubated on ice for 1 hr and vortexed every 15 minutes before spinning down at 14 000 g for 10 minutes. Supernatants were collected and flash frozen in Liquid nitrogen for 10 minutes and stored at −80 C until further used. Adjust volume of samples with lysis buffer to obtain 1 mg in total volume of 1 mL. Perform TUBES pulldown following manufacturer's procedure using TUBE1 (high capacity magnetic beads) (Cat #UM-0501M-1000. LifeSensors). Briefly, wash 150 μl beads per sample with 12× beads volume of PBST (0.1% Tweed-20) three times. Add 1 mL of protein lysate to beads and incubate for 4 hours rotating at 4 C. Wash 4× with 10× beads volume of lysis buffer and rotate for 3 minutes, then collect beads with magnet for 3 minutes before collecting buffer. Wash 1× with 5× beads volumes of PBS-T. Wash TUBEs with 100 μl wash buffer for 5 minutes on thermomixer set at 1400 rpm and 25 C. TUBE washing buffer/TUBE Elution buffer/TUBE Neutralization buffer (Cat #UM411. LifeSensors) Elute with 18 μl of TUBE elution buffer for 15 minutes on thermomixer set at 1400 rpm at 25 C, and then collect eluate and add 2 μl of neutralization buffer. Load 18 μl of pulldown sample and 10 μg of input samples onto gel for western blot using standard methods with following antibodies: AKT (pan) (C67E7) (CST. Cat #4691S). β-Actin antibody (Cat #A1978, sigma) (Dilution. 1:2000) Anti-rabbit IgG. HRP-linked Antibody (CST. Cat #7074S) (Dilution, 1:2000)

AKT1 E17 = target: T1, AKT1 E17 (Homo sapiens, UniProt P31749, E17K); experiment: AKT plasma membrane translocation assay (AKT1 E17K-SmBiT / LCK1-LgBiT luminescence); conditions: KU-19-19 cells transfected with AKT1E17K-SmBIT and LCK1-LgBiT, read up to 1 hr
T1 construct: expressed in transfected cells; host or cells: KU-19-19
Description: AKT plasma membrane translocation assay
Seed 1.5×10^6 KU-19-19 cells in 10 cm dish. Transfect cells at 70% cell confluency with 5 ug AKTIE17K-SmBIT and 0.5 ug LCK1-LgBiT with Jet-Optimus transfection reagent. Incubate for 4-5 hours at 37c 5% CO2 TC incubator. Split and seed 10K cells in 40 ul media per well in 384 well plate and incubate over night at 37° C. CO2 free TC incubator. Add 10 ul of 5× Vivazine substrate (prepared in CO2 independent medium) to cells and shake palte to mix for 30 seconds. Read Luminescence for 100 minutes until signal is stable (1 read per minute). Add 50 nl/well of 3 uM compound stock to cells.

KU1919.1 = experiment: Cell Titer Glo (CTG) proliferation assay, KU1919; conditions: Homo sapiens, KU-19-19; KU1919.1 cells, 72.0 hrs.; read-out: AVE CTG Proliferation KU1919.1 72.0 hrs.
Outline: (§1)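 After overnight seeding at 37 °C, 5% CO2, cells were exposed to compound for 3 days. Viability read by CellTiter-Glo luminescence after 30 min at room temperature.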

MDAMB231.1 = experiment: Cell Titer Glo (CTG) proliferation assay, MDA-MB-231; conditions: Homo sapiens, MDA-MB-231; MDAMB231.1 cells, 72 hrs.; read-out: AVE CTG Proliferation MDAMB231.1 72 hrs.
Description: Seed cells in 40 μL of cell culture media into each well of 384-well cell culture plate, spin them at room temperature at 1,000 RPM for 1 minute and then transfer the plates into 37° C. 5% CO2 incubator overnight. Next day, treat cells with 40 nL of diluted compound and return to incubator. After compound treatment for 3 days, Add 30 μL of CellTiter-Glo reagent (Promega) into each well to be detected. Then place the plates at room temperature for 30 min followed by reading on EnVision. Inhibition activity calculated as % DMSO=100×(LumSample-Lum low control)/(Lum high control-Lum low control) where high control is from cells treated with 0.1% DMSO and Low control obtained from PBS only. Use XLFit (equation 201) to calculate IC50 (A+ ((B−A)/(1[…]((x/C)^D)))) where A: Bottom, B: Top, C: IC50, D: Slope.

MDAMB468.1 = experiment: Cell Titer Glo (CTG) proliferation assay, MDA-MB-468; conditions: Homo sapiens, MDA-MB-468; MDAMB468.1 cells, 72.0 hrs.; read-out: AVE CTG Proliferation MDAMB468.1 72.0 hrs.
Outline: as §1

T1 sequence (P31749 whole entry E17K): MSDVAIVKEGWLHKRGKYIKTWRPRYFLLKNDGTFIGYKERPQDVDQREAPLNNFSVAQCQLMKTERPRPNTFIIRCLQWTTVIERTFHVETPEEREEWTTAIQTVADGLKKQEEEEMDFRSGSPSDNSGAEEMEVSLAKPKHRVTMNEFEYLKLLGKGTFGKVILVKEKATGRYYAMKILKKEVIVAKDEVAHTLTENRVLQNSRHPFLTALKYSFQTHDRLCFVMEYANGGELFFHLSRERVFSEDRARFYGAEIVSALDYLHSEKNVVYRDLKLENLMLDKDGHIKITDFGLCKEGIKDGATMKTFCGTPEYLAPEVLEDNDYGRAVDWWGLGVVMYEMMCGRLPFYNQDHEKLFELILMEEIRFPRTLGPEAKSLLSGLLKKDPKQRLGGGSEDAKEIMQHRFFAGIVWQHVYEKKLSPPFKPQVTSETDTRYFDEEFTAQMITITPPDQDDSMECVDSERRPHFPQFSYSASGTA

Question: Which results are given for CC(C)(C)OC(=O)N[C@@H](C(=O)N1CCC(OC2CCN(CC(=O)N3CCN(CC[C@H](NC(=O)C4(N)CCN(c5ncnc6[nH]ccc56)CC4)c4ccc(Cl)cc4)CC3)CC2)CC1)C1CCCCC1 [Compound I-312]?
Answer: Reduced AKT ubiquitination relative to PBM (AKT): Yes; Reduced AKT1 E17 plasma membrane translocation relative to PBM (AKT1 E17): Yes; IC50 (KU1919.1): 1 to 5 µM; IC50 (MDAMB231.1): 1 to 5 µM; IC50 (MDAMB468.1): 1 to 5 µM

From patent US20250171465A1, “AKT INHIBITORS” (Stablix, Inc., priority 2023, published 2025)
